Consider eleven molecules from patent US5643601A, “Phospholipid-and fluorocarbon-containing cosmetic” (Lancaster Group AG, priority 1992, dated 1997).

Like-named read-outs stand apart in the source and are kept apart here.

The nature of series [1]: O2 solubility of fluorocarbons (Table 1). The class given is physicochemical.
Description: (§2) Some selected fluorocarbons and their O2 solubility, their vapour pressure and their critical solubility temperature are shown in Table 1.
Series [2] in a line: Critical solubility temperature (CST) of fluorocarbons in n-hexane. The source says:
(§1) The fluorocarbons can be selected for O2 solubility, partial vapour pressure and lipid solubility according to the specific intended application. The critical solubility temperature of the fluorocarbons (CST) in n-hexane correlates with their solubility in lipids, e.g. cell membranes, and is thus a measure of the rate of release through the skin. […] It is thus possible by mixing various fluorocarbons to set defined CST values which are often not realisable by means of individual compounds.
Starting from these values, the desired characteristics for the penetration of the skin with the aid of a cosmetic composition can be selected for mixtures of fluorocarbons.

A short description of series [3]: Vapour pressure of fluorocarbons (Table 1). It counts as physicochemical.
Description: as §2
In series [4] the test system is skin. In words: Release of fluorocarbons through the skin.
Description: as §1

Series [5] relates to skin. To be noted: in words; cited from earlier work.

On to `FC(F)(F)C(F)(F)C(F)(F)C(F)(F)C=CC(F)(F)C(F)(F)C(F)(F)C(F)(F)F` [Bis-F(butyl)ethene], for which the O2 solubility in series [1] is reported as 50 ml of O2 /100 ml of Fc. Further, in series [2] (in n-hexane), the “CST (critical solubility temperature)” value came out at 22.5 °C. In addition, the “Vapour Pressure P37° C.” value in series [3] (37° C.) is recorded as 12.6 mm Hg.
With `FC1(F)OC(F)(F)C(F)(F)N(C(F)(F)C2(F)C(F)(F)C(F)(F)C(F)(F)C(F)(F)C2(F)F)C1(F)F` [F-cyclohexylmethyl-morpholine], the O2 solubility in series [1] is 42 ml of O2 /100 ml of Fc. In series [2] (in n-hexane), the “CST (critical solubility temperature)” value was found to be 38.5 °C. Moreover, the “Vapour Pressure P37° C.” value in series [3] (37° C.) is 4 mm Hg.
The like results for `FC(F)(F)C(F)(F)C(F)(F)C(F)(F)C(F)(F)C(F)(F)OC(F)(F)C(F)(F)C(F)(F)C(F)(F)C(F)(F)C(F)(F)F` [F-dihexyl ether] were, in that order, 45 ml of O2 /100 ml of Fc, 59 °C and 2 mm Hg.
As to `FC(F)(F)C(F)(F)C(F)(F)C(F)(F)C(F)(F)C(F)(F)F` [F-hexane], the O2 solubility in series [1] is 58 ml of O2 /100 ml of Fc. Further, the “Vapour Pressure P37° C.” value in series [3] was found to be 414 mm Hg.
For `FC(F)(F)C1(F)C(F)(F)C(F)(F)C(F)(F)C(F)(F)C1(F)F` [F-methylcyclohexane], in series [1], the O2 solubility is 57 ml of O2 /100 ml of Fc. Moreover, the “CST (critical solubility temperature)” value in series [2] (in n-hexane) turned out to be 8.2 °C. Moreover, the “Vapour Pressure P37° C.” value in series [3] (37° C.) is given as 180 mm Hg.
For `FC(F)(F)C(F)(F)C(F)(F)C(F)(F)N(C(F)(F)C(F)(F)C(F)(F)C(F)(F)F)C(F)(F)C(F)(F)C(F)(F)C(F)(F)F` [F-tributylamine], in series [1], the O2 solubility was 40 ml of O2 /100 ml of Fc. Besides, in series [2] (in n-hexane), the “CST (critical solubility temperature)” value was determined as 59 °C. For the same molecule, the “Vapour Pressure P37° C.” value in series [3] (37° C.) came to 1 mm Hg. Also, the “rate of release through the skin / half-life of release” value with skin [4] (in words, correlated with CST) is “high half-life of release”.
As to `FC(F)(F)C(F)(F)C(F)(F)N(C(F)(F)C(F)(F)C(F)(F)F)C(F)(F)C(F)(F)C(F)(F)F` [F-tripropylamine], the O2 solubility in series [1] is recorded as 45 ml of O2 /100 ml of Fc. Further, the “CST (critical solubility temperature)” value in series [2] came out at 43 °C. Besides, the “Vapour Pressure P37° C.” value in series [3] (37° C.) amounted to 18.5 mm Hg.
As for `FC(F)(F)C(F)(F)C(F)(F)C(F)(F)C1(F)OC(F)(F)C(F)(F)C1(F)F` (stereo not drawn) [Perfluorobutyl-tetrahydrofuran], the O2 solubility in series [1] was 52 ml of O2 /100 ml of Fc. Besides, the “CST (critical solubility temperature)” value in series [2] (in n-hexane) was determined as 29 °C. In addition, in series [3] (37° C.), the “Vapour Pressure P37° C.” value is 51 mm Hg.
With `FC1(F)C(F)(F)C(F)(F)C2(F)C(F)(F)C(F)(F)C(F)(F)C(F)(F)C2(F)C1(F)F` (stereo not drawn) [Perfluorodecalin], the O2 solubility in series [1] is listed as 40 ml of O2 /100 ml of Fc. Besides, in series [2], the “CST (critical solubility temperature)” value turned out to be 22 °C. For the same molecule, the “Vapour Pressure P37° C.” value in series [3] (37° C.) was determined as 12.5 mm Hg. In addition, the “rate of release through the skin / half-life of release” value in the series with skin [4] was “released relatively rapidly”.
On the same counts, the results for `FC(F)(F)C(F)(F)C(F)(F)C(F)(F)C(F)(F)C(F)(F)C(F)(F)C(F)(F)Br` [Perfluorooctyl bromide] are 50 ml of O2 /100 ml of Fc, -24.5 °C, 14 mm Hg and “released relatively rapidly”.
On to `OO` [hydrogen peroxide], for which, in the series on skin [5], the “skin irritation / side effects” value is on record as “considerable side effects such as the skin irritations”.
